{"source": "patent US20090270342A1", "about": "“IMMUNOREGULATORY AGENT” (priority 2006, published 2009)", "key": {"[1]": {"test_system": "anti-Cry j 1-IgE, IgG1 in serum", "experiment": "Anti-Cry j 1 antibody in serum of Cry j 1/alum-sensitized mice (Experiment 5)", "assay_type": "in vivo", "settings": "for Anti-Cry J 1-IgG1 in serum / Anti-Cry J 1-IgG1 in serum, relative to control: two weeks after the second sensitization", "experimental": "In order to investigate the effect of lactosucorse on systemic immunity, antibody level in serum was measured. Similarly as in Experiment 1, female BALB/c mice (six weeks old) were preliminary reared for one week on “AIN-93G”, the same standard purified diet as used in Experiment 1. Successively, “NYU-KA OLIGO 700”, a saccharide composition comprising 71.4% (w/w), on a dry solid basis, of lactosucrose commercialized by Hayashibara Shoji Inc., Okayama, Japan, was incorporated into the above purified diet, in which corn starch equal to the amount of the saccharide composition comprising lactosucrose had been removed, to give a lactosucrose content of 2% (w/w) or 5% (w/w), and five to seven mice/group were allowed to ingest the resulting test diet freely. Mice, allowed to ingest “AIN-93G”, as the standard purified diet, were used as control. At 10 days after from starting the administration of the test diet, mice were sensitized to antigen by administrating 20 μg of ovalbumin (OVA) (grade V, commercialized by Sigma Corporation) as antigen and 4.5 mg of “IMJECT®”, alum commercialized by Pierce ThermoScientific as adjuvant, into the peritoneal cavity. Successively, 15 days after from the first sensitization, the second sensitization was carried out by the same procedure. The blood was collected from caudal vein of mice at one, two, and three weeks after from the second sensitization, the serum was collected by centrifugation, and the amount of IgE to OVA was measured by EIA. In the cases of IgG1 and IgG2a, the amount of antibody was measured using serum collected at two weeks after from the second sensitization. The IgE and IgG2a titers were measured by capture EIA and IgG1 titer was measured by indirect EIA. Each titer was calculated by calibration curve prepared by using anti-OVA mouse serum (IgE: 1.760 U/ml, IgG1: 128,000 U/ml, IgG2a: 7,040 u/ml) as a standard serum. The amounts of IgE at one, two, or three weeks after from the second sensitization are in Table 5, and the amounts of IgG1 and IgG2a of two weeks after from the second sensitization are in Table 6. The percentages in parentheses in tables mean a relative value to the antibody concentration in serum of the control mice.\nIn order to investigate the usefulness of lactosucrose ingestion for preventing or treating allergy to cedar pollen, the effect of lactosucrose for suppressing the production of IgE, caused by Cry j 1, a cedar pollen allergen, was investigated as follows. Except for using 20 μg of “PURIFIED CEDAR POLLEN ALLERGEN Cry j 1”, Cry j 1 commercialized by Seikagaku Corporation, Tokyo, Japan, as a substitute for OVA, the experiment was carried out by the same procedure as in Experiment 4, and the amount of anti-Cry j 1-IgE was measured at one and two weeks after the second sensitization. Further, the amount of anti-Cry j 1-IgG1 was also measured at two weeks after the second sensitization. The amounts of anti-Cry j 1-IgE and anti-Cry j 1-IgG1 were measured by the same procedure as in Experiment 4 except for using “PURIFIED CEDAR POLLEN ALLERGEN Cry j 1-Biotin”, commercialized by Seikagaku Corporation, Tokyo, Japan, as a solid phase. The results for IgE and IgG1 are in Tables 7 and 8, respectively."}, "[2]": {"settings": "in vivo; cited from earlier work"}}}
{"compound": "OC[C@H]1O[C@@H](O[C@H]2[C@H](O)[C@@H](O)[C@@H](O[C@]3(CO)O[C@H](CO)[C@@H](O)[C@@H]3O)O[C@@H]2CO)[C@H](O)[C@@H](O)[C@H]1O", "note": "[Lactosucrose, β-D-galactosyl-(1,4)-α-D-glucosyl-(1,2)-β-D-fructoside]", "values": [{"measurement": "Anti-Cry j 1-IgE in serum", "setting": "[1]; Lactosucrose 2% (w/w) diet, one week after the 2nd sensitization", "result": "351 ± 277", "unit": "U/ml"}, {"measurement": "Anti-Cry j 1-IgE in serum", "setting": "[1]; Lactosucrose 2% (w/w) diet, two weeks after the 2nd sensitization", "result": "239 ± 180", "unit": "U/ml"}, {"measurement": "Anti-Cry J 1-IgG1 in serum", "setting": "[1]; Lactosucrose 2% (w/w) diet", "result": "10.3 ± 6.01 ×10^4 U/ml"}, {"measurement": "Anti-Cry j 1-IgE in serum, relative to control", "setting": "[1]; Lactosucrose 2% (w/w), one week after the 2nd sensitization", "result": "(44%)"}, {"measurement": "Anti-Cry j 1-IgE in serum, relative to control", "setting": "[1]; Lactosucrose 2% (w/w), one week after the 2nd sensitization, listed as lactosucrose", "result": 44, "unit": "%"}, {"measurement": "Anti-Cry j 1-IgE in serum, relative to control", "setting": "[1]; Lactosucrose 2% (w/w), two weeks after the 2nd sensitization", "result": "(23%)"}, {"measurement": "Anti-Cry j 1-IgE in serum, relative to control", "setting": "[1]; Lactosucrose 2% (w/w), two weeks after the 2nd sensitization, listed as lactosucrose", "result": 23, "unit": "%"}, {"measurement": "Anti-Cry J 1-IgG1 in serum, relative to control", "setting": "[1]; Lactosucrose 2% (w/w)", "result": "(80%)"}, {"measurement": "Anti-Cry j 1-IgE in serum", "setting": "[1]; Lactosucrose 5% (w/w) diet, one week after the 2nd sensitization", "result": "620 ± 157", "unit": "U/ml"}, {"measurement": "Anti-Cry j 1-IgE in serum", "setting": "[1]; Lactosucrose 5% (w/w) diet, two weeks after the 2nd sensitization", "result": "404 ± 114", "unit": "U/ml"}, {"measurement": "Anti-Cry J 1-IgG1 in serum", "setting": "[1]; Lactosucrose 5% (w/w) diet", "result": "7.51 ± 2.89 ×10^4 U/ml"}, {"measurement": "Anti-Cry j 1-IgE in serum, relative to control", "setting": "[1]; Lactosucrose 5% (w/w), one week after the 2nd sensitization", "result": "(77%)"}, {"measurement": "Anti-Cry j 1-IgE in serum, relative to control", "setting": "[1]; Lactosucrose 5% (w/w), two weeks after the 2nd sensitization", "result": "(38%)"}, {"measurement": "Anti-Cry J 1-IgG1 in serum, relative to control", "setting": "[1]; Lactosucrose 5% (w/w)", "result": "(58%)"}, {"measurement": "Effect of a dose higher than the maximum dose without harmful effect", "setting": "[2]", "result": "causes diarrhea"}, {"measurement": "Maximum dose of lactosucrose without harmful effect", "setting": "[2]", "result": "0.6-0.8 g/kg-body weight"}]}
